The inhibition is the relative decrease from the control value, in per cent.

Structures can show the parent of a compound that is named as a salt.

The values below come from patent publication US5547980A, “Bicyclic sulfones, processes for their production and pharmaceutical agents containing them” (Boehringer Mannheim GmbH, priority 1991, dated 1996).

One assay relates to passively sensitized guinea-pig lung parenchymal strips. Put plainly: Inhibition of the antigen-induced constriction of passively sensitized guinea-pig lung parenchymal strips in vitro (organ bath). In kind it is cell-based, guinea-pig (Pirbright-White). The following applies: Cavia porcellus, 20 μg/ml, ovalbumin 0.1 μg/ml, 20 min/37° C. preincubation time (organ bath technique). As to the method: Inhibition of the antigen-induced constriction of passively sensitized guinea-pig - lung parenchymal - strips in vitro (organ bath) For the in vitro examination of the compounds according to the invention, the inhibition of the antigen-induced constriction of passively sensitized guinea-pig lung parenchymal strips was measured as described in the following: Pirbright-White guinea-pigs were stunned by a blow on the neck and exsanguinated. The lungs were rinsed substantially free of blood in situ using Krebs buffer, pH 7.4. Subsequently the lung was excised, cut into strips (ca. 20×4×4 mm) and the strips were passively sensitized for one hour at room temperature with a 1:50 dilution of a homologous anti-ovalbumin antiserum and then washed once with Krebs buffer. The antiserum had previously been produced in guinea-pigs of the same strain according to […] (1) by repeated injection of ovalbumin (2×crystallized) with addition of complete Freund's adjuvant. The antiserum was stored undiluted at -18° C. until use. Subsequently the lung strips were suspended individually in 10 ml water baths on an isometric measuring recorder with an initial tension of 1.2 g. Afterwards the baths were filled with Krebs buffer and gassed continuously at 37° C. with O2 (95%) and CO2 (5%). The constrictions of the lung strips were recorded via an amplifier on a recorder. […] The inhibitory effects of the compounds according to the invention were expressed as percentage reduction of the constriction amplitudes of the "samples with test substance" in relation to the "untreated control constrictions". (1) […]. Johnstone Quantitative studies on anaphylaxis in guinea-pigs passively sensitized with homologous antibody. Inter. Arch. Allergy 41, 648-454 (1971) |% inhibition of the ovalbumin (0.1 μg/ml) induced |constriction of passively sensitized lung parenchymal strips |(guinea-pig) |20 min/37° C. preincubation time (organ bath technique)
For `CCCCNC1CS(=O)(=O)c2cc(Cl)ccc2C1NCCCC` (stereo not drawn) [Example 5l), 7-chloro-3,4-bis-n-butyl-amino-benzo[b]thian-1,1-dioxide-dihydrochloride], the inhibition at 20 µg/mL was determined as 25%.
On the same count and under the same terms, for `CCN(CC)CC1=Cc2ccc(Cl)cc2S1(=O)=O` [Example 1, 6-chloro-2-(N,N-diethylamino-methyl)benzo[b]thiophene-1,1 dioxide] the value was 53%.
For the compound `CCN(CC)CC1=Cc2ccc(Cl)c(Cl)c2S1(=O)=O` [Example 7, 6,7-dichloro-2-(N,N-diethylamino-methyl)benzo[b]thiophene-1,1-dioxide-hydrochloride], the inhibition at 20 µg/mL turned out to be 88%.
`O=S1(=O)CC(N2CCCC2)C(N2CCCC2)c2ccc(Cl)cc21` (stereo not drawn) [3a), 7-chloro-3,4-bis-pyrrolidino-benzo[b]thian-1,1-dioxide]: the inhibition at 20 µg/mL was 25%.
Still for that read-out and setting: for `CCN(CC)CC1=Cc2cc(Cl)c(Cl)cc2S1(=O)=O` [Example 6, 5,6-dichloro-2-(N,N-diethylamino-methyl)benzo[b]-thiophene-1,1-dioxide-hydrochloride] the value was 51%.

Staying with this assay, now noted: Cavia porcellus, 200 μg/ml (footnote *), ovalbumin 0.1 μg/ml, 20 min/37° C. preincubation time (organ bath technique).
For `Cn1c(=O)c2[nH]cnc2n(C)c1=O` [aminophylline, reference compound], the inhibition at 200 µg/mL was determined as 26%.
